ChEMBL document CHEMBL6083204, “Synthesis of a celastrol derivative as a cancer stem cell inhibitor through regulation of the STAT3 pathway for treatment of ovarian cancer” (RSC Med Chem, 2024)
Calls of active or inactive are those of the source. The calls are words filed in the database; no cut-off is given here.

Columns and labels:
OVCAR-3 = test: Antiproliferative activity against human OVCAR-3 cells assessed as inhibition of cell growth incubated for 72 hrs by MTT assay; assay type: functional, cell-based; settings: OVCAR-3, 72 h
SK-OV-3 [1] = test: Inhibition of colony formation in human SK-OV-3 cells assessed as reduction in colony size incubated for 10 days by crystal violet staining based analysis; assay type: functional, cell-based; settings: time 10.0 day
SK-OV-3 [2] = test: Inhibition of human SK-OV-3 cells spheroid formation assessed as reduction in spheroid number at 0.1 to 0.4 uM incubated for 10 days by inverted microscopic analysis; assay type: functional, cell-based; settings: dose 0.1-0.4 µM, time 10.0 day
A2780 [3] = test: Inhibition of human A2780 cells spheroid formation assessed as reduction in spheroid number at 0.1 to 0.4 uM incubated for 10 days by inverted microscopic analysis; assay type: functional, cell-based; settings: dose 0.1-0.4 µM, time 10.0 day
SK-OV-3 [4] = test: Induction of ROS production in human SK-OV-3 cells assessed as increase in fluorescence intensity incubated for 24 hrs by DCFH-DA staining based flow cytometry; assay type: functional, cell-based
A2780 [5] = test: Antiproliferative activity against human A2780 cells assessed as decrease in CD44 positive CD24 negative cells expression at 0.4 uM incubated for 24 hrs by FITC staining based flow cytometry (reference value: 28.13 %); assay type: functional; parameters: scale not given: the % may be the effect or the level left
[6] = molecular target: Signal transducer and activator of transcription 3 (Homo sapiens) (UniProt P40763); test: Inhibition of STAT3 in human SK-OV-3 cells assessed as downregulation of STAT3 phosphorylation at Ser727 residue in nuclei at 0.2 uM incubated for 24 hrs by Hoechst33342 staining based immunofluorescence assay; assay type: cell-based
Chain of Signal transducer and activator of transcription 3 (Homo sapiens) (P40763 whole entry): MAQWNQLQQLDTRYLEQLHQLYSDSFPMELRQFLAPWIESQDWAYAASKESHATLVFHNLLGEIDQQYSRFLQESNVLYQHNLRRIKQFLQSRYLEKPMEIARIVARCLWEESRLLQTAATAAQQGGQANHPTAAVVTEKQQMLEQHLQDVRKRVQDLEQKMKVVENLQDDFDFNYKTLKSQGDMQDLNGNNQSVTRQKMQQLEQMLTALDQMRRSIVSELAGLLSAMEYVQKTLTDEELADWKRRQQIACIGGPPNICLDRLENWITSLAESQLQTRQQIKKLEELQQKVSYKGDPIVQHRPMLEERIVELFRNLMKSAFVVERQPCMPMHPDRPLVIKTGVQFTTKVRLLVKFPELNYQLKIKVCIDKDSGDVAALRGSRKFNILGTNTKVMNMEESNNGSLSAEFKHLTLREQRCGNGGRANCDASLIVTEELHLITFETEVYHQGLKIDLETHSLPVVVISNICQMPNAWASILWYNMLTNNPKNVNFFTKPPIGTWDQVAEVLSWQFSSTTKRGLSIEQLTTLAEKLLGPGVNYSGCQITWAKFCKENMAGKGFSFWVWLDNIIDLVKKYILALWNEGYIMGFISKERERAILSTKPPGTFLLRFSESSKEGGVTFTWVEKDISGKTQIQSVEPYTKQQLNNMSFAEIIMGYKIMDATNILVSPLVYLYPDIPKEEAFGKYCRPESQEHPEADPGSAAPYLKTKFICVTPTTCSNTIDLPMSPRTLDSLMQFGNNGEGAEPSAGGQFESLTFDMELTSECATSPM

[7] = molecular target: Signal transducer and activator of transcription 3 (Homo sapiens) (UniProt P40763); test: Inhibition of STAT3 in human A2780 cells assessed as downregulation of STAT3 expression in nuclei at 0.2 uM incubated for 24 hrs by Hoechst33342 staining based immunofluorescence assay; assay type: cell-based
[8] = molecular target: Signal transducer and activator of transcription 3 (Homo sapiens) (UniProt P40763); test: Inhibition of STAT3 in human A2780 cells assessed as downregulation of STAT3 phosphorylation at Tyr705 residue in nuclei at 0.2 uM incubated for 24 hrs by Hoechst33342 staining based immunofluorescence assay; assay type: cell-based
[9] = molecular target: Signal transducer and activator of transcription 3 (Homo sapiens) (UniProt P40763); test: Inhibition of STAT3 in human SK-OV-3 cells assessed as downregulation of cytoplasmic STAT3 phosphorylation at Ser727 residue at 0.2 uM incubated for 24 hrs by Hoechst33342 staining based immunofluorescence assay; assay type: cell-based
[10] = molecular target: Signal transducer and activator of transcription 3 (Homo sapiens) (UniProt P40763); test: Inhibition of STAT3 in human A2780 cells assessed as downregulation of cytoplasmic STAT3 expression at 0.2 uM incubated for 24 hrs by Hoechst33342 staining based immunofluorescence assay; assay type: cell-based
SK-OV-3 [11] = test: Induction of cell cycle arrest in human SK-OV-3 cells assessed as accumulation of cells at G0/G1 phase at 0.8 uM incubated for 24 hrs by BrdU staining based flow cytometry (reference value: 59.8 %); assay type: functional
SK-OV-3 [12] = test: Induction of cell cycle arrest in human SK-OV-3 cells assessed as accumulation of cells at S phase at 0.4 uM incubated for 24 hrs by BrdU staining based flow cytometry (reference value: 33.6 %); assay type: functional
A2780 [13] = test: Induction of cell cycle arrest in human A2780 cells assessed as accumulation of cells at S phase at 0.2 uM incubated for 24 hrs by BrdU staining based flow cytometry (reference value: 51.6 %); assay type: functional
A2780 [14] = test: Induction of cell cycle arrest in human A2780 cells assessed as accumulation of cells at G2/M phase at 0.2 uM incubated for 24 hrs by BrdU staining based flow cytometry (reference value: 6.2 %); assay type: functional
A2780 [15] = test: Induction of cell cycle arrest in human A2780 cells assessed as accumulation of cells at G2/M phase at 0.8 uM incubated for 24 hrs by BrdU staining based flow cytometry (reference value: 6.2 %); assay type: functional
SK-OV-3 [16] = test: Induction of cell cycle arrest in human SK-OV-3 cells assessed as reduction of CDK2 expression at 0.2 uM incubated for 24 hrs by flow cytometry (reference value: 94.4 %); assay type: functional; parameters: scale not given: the % may be the effect or the level left
SK-OV-3 [17] = test: Induction of cell cycle arrest in human SK-OV-3 cells assessed as reduction of CDK4 expression at 0.4 uM incubated for 24 hrs by flow cytometry (reference value: 66.8 %); assay type: functional; parameters: scale not given: the % may be the effect or the level left
A2780 [18] = test: Induction of cell cycle arrest in human A2780 cells assessed as reduction of CDK4 expression at 0.2 uM incubated for 24 hrs by flow cytometry (reference value: 93.6 %); assay type: functional; parameters: scale not given: the % may be the effect or the level left
SK-OV-3 [19] = test: Induction of apoptosis in human SK-OV-3 cells assessed as early apoptotic cells at 0.2 uM incubated for 24 hrs by Annexin V-FITC/7-AAD staining based flow cytometry (reference value: 1.6 %); assay type: functional
SK-OV-3 [20] = test: Induction of apoptosis in human SK-OV-3 cells assessed as late apoptotic cells at 0.4 uM incubated for 24 hrs by Annexin V-FITC/7-AAD staining based flow cytometry (reference value: 3.7 %); assay type: functional
SK-OV-3 [21] = test: Induction of apoptosis in human SK-OV-3 cells assessed as necrotic cells at 0.4 uM incubated for 24 hrs by Annexin V-FITC/7-AAD staining based flow cytometry (reference value: 0.6 %); assay type: functional
A2780 [22] = test: Induction of apoptosis in human A2780 cells assessed as viable cells at 0.8 uM incubated for 24 hrs by Annexin V-FITC/7-AAD staining based flow cytometry (reference value: 95 %); assay type: functional; settings: read-out: Activity
A2780 [23] = test: Induction of apoptosis in human A2780 cells assessed as early apoptotic cells at 0.2 uM incubated for 24 hrs by Annexin V-FITC/7-AAD staining based flow cytometry (reference value: 1.9 %); assay type: functional
A2780 [24] = test: Induction of apoptosis in human A2780 cells assessed as late apoptotic cells at 0.2 uM incubated for 24 hrs by Annexin V-FITC/7-AAD staining based flow cytometry (reference value: 2.1 %); assay type: functional
A2780 [25] = test: Induction of apoptosis in human A2780 cells assessed as late apoptotic cells at 0.4 uM incubated for 24 hrs by Annexin V-FITC/7-AAD staining based flow cytometry (reference value: 2.1 %); assay type: functional
A2780 [26] = test: Induction of apoptosis in human A2780 cells assessed as necrotic cells at 0.2 uM incubated for 24 hrs by Annexin V-FITC/7-AAD staining based flow cytometry (reference value: 1 %); assay type: functional
Mitochondrial membrane [27] = test: Induction of mitochondrial membrane potential loss in human SK-OV-3 cells at 0.1 uM incubated for 24 hrs by JC-1 staining based flow cytometry (reference value: 73.6 %)
Mitochondrial membrane [28] = test: Induction of mitochondrial membrane potential loss in human A2780 cells at 0.1 uM incubated for 24 hrs by JC-1 staining based flow cytometry (reference value: 81 %)
SK-OV-3 [29] = test: Induction of apoptosis in human SK-OV-3 cells assessed as increase in caspase-8 activity at 0.4 uM incubated for 24 hrs by flow cytometry (reference value: 2.5 %); assay type: functional
A2780 [30] = test: Induction of apoptosis in human A2780 cells assessed as increase in caspase-3 activity at 0.8 uM incubated for 24 hrs by flow cytometry (reference value: 1.5 %); assay type: functional
SK-OV-3 [31] = test: Inhibition of cell migration in human SK-OV-3 cells assessed as downregulation of phosphorylated FAK expression at 0.1 to 0.4 uM incubated for 24 hrs by Western blotting analysis; assay type: functional, cell-based; settings: dose 0.1-0.4 µM

IC50 (OVCAR-3): 250 nM
inhibition [6]: Active
inhibition [7]: Active
inhibition [8]: Active
inhibition [9]: Active; Showed Mild Inhibition Activity
inhibition [10]: Active; Showed Mild Inhibition Activity
Activity (Mitochondrial membrane [27]): 70.7%
Activity (Mitochondrial membrane [28]): 56.4%
Compound: CC1=C(O)C(=O)C=C2C1=CC=C1[C@@]2(C)CC[C@@]2(C)[C@@H]3C[C@](C)(C(=O)N4CCNCC4)CC[C@]3(C)CC[C@]12C
inhibition (SK-OV-3 [1]): Dose-dependent-effect
inhibition (SK-OV-3 [2]): Active
inhibition (A2780 [3]): Active
Activity (SK-OV-3 [4]): Dose-dependent-effect
Activity (A2780 [5]): 2.93%
Activity (SK-OV-3 [11]): 47.7%
Activity (SK-OV-3 [12]): 42.9%
Activity (A2780 [13]): 41.7%
Activity (A2780 [14]): 4.8%
Activity (A2780 [15]): 24.3%
Activity (SK-OV-3 [16]): 91.1%
Activity (SK-OV-3 [17]): 70.6%
Activity (A2780 [18]): 74.6%
Activity (SK-OV-3 [19]): 17.3%
Activity (SK-OV-3 [20]): 11.5%
Activity (SK-OV-3 [21]): 0.9%
viability at 0.8 µM (A2780 [22]): 24.5%
Activity (A2780 [23]): 4.4%
Activity (A2780 [24]): 5.3%
Activity (A2780 [25]): 15%
Activity (A2780 [26]): 1%
Activity (SK-OV-3 [29]): 36.7%
Activity (A2780 [30]): 70.7%
inhibition (SK-OV-3 [31]): Active
